From US20150259295A1, “SUBSTITUTED PYRAZOLE COMPOUNDS AS LPAR ANTAGONISTS” (Hoffmann-La Roche Inc., priority 2012, published 2015)

Experiments:
[1] = molecular target: human recombinant LPA1 Lysophospholipid receptor (Homo sapiens, UniProt Q92633); assay: Calcium flux assay using FLIPR, LPA1R antagonist activity; type: cell-based; details: for IC50: ChemiScreen calcium-optimized stable cell line, FLIPR calcium flux, antagonist mode
Description: (§1) Calcium Flux Assay Using Fluorometric Imaging Plate Reader (FLIPR)
Cell Culture Conditions: The ChemiScreen Calcium-optimized stable cell line containing the human recombinant LPA1 Lysophospholipid receptor was purchased from Chemicon International, Inc./Millipore. The cells were cultured in DMEM-high glucose supplemented with 10% fetal bovine serum, 2 mM glutamine, 100 U/mL penicillin/100 μg/mL streptomycin, 1× non-essential amino acids, 10 mM HEPES and 0.25 mg/mL Geneticin. Cells were harvested with trypsin-EDTA and counted using ViaCount reagent. The cell suspension volume was adjusted to 2.0×10^5 cells/mL with complete growth media. Aliquots of 50 μL were dispensed into 384 well black/clear tissue culture treated plates (BD) and the microplates were placed in a 37° C. incubator overnight. The following day plates were used in the assay.
Dye Loading and Assay: Loading Buffer (FLIPR Calcium-4, Molecular Devices) was prepared by dissolving the contents of one bottle into 100 mL Hank's Balanced Salt Solution containing 20 mM HEPES and 2.5 mM probenecid. Plates were loaded onto Biotek plate washer and growth media was removed and replaced with 20 µL of Hank's Balanced Salt Solution containing 20 mM HEPES and 2.5 mM probenecid, followed by 25 μL of Loading Buffer. The plates were then incubated for 30 minutes at 37° C.
During the incubation, test compounds were prepared by adding 90 μL of HBSS/20 mM HEPES/0.1% BSA buffer to 2 μL of serially diluted compounds. To prepare serial dilutions, 10 mM stocks of compounds were prepared in 100% DMSO. The compound dilution plate was set up as follows: well #1 received 29 μL of stock compound and 31 μL DMSO; wells 2-10 received 40 μL of DMSO; mixed and transferred 20 μL of solution from well #1 into well #2; continued with 1:3 serial dilutions out 10 steps; transferred 2 μL of diluted compound into duplicate wells of 384 well “assay plate” and then added the 90 μL of buffer.
(§2) After incubation, both the cell and “assay” plates were brought to the FLIPR and 20 μL of the diluted compounds were transferred to the cell plates by the FLIPR. Compound addition was monitored by FLIPR to detect any agonist activity of the compounds. Plates were then incubated for 30 minutes at room temperature protected from light. After the incubation, plates were returned to the FLIPR and 20 μL of 4.5× concentrated agonist was added to the cell plates. During the assay, fluorescence readings were taken simultaneously from all 384 wells of the cell plate every 1.5 seconds. Five readings were taken to establish a stable baseline, then 20 μL of sample was rapidly (30 μL/sec) and simultaneously added to each well of the cell plate. The fluorescence was continuously monitored before, during and after sample addition for a total elapsed time of 100 seconds. Responses (increase in peak fluorescence) in each well following agonist addition was determined. The initial fluorescence reading from each well, prior to ligand stimulation, was used as zero baseline value for the data from that well. The responses were expressed as % inhibition of the buffer control.

LPA3R = molecular target: T1, LPA3R (Homo sapiens, UniProt Q9UBY5); assay: LPA3R antagonist activity (Table 1, calcium flux FLIPR); type: cell-based
T1 sequence (Q9UBY5 1-353): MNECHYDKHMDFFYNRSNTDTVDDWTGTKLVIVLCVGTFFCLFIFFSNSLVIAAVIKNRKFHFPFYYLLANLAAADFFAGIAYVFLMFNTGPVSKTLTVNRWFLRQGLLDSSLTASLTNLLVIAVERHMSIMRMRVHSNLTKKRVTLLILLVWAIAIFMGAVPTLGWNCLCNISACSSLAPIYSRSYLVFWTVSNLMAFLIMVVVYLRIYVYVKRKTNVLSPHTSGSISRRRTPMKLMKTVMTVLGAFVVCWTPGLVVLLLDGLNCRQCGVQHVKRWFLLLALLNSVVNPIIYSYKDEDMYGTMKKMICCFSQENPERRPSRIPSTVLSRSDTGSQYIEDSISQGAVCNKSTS
Description: as §1, §2

Chain of human recombinant LPA1 Lysophospholipid receptor (Q92633 whole entry): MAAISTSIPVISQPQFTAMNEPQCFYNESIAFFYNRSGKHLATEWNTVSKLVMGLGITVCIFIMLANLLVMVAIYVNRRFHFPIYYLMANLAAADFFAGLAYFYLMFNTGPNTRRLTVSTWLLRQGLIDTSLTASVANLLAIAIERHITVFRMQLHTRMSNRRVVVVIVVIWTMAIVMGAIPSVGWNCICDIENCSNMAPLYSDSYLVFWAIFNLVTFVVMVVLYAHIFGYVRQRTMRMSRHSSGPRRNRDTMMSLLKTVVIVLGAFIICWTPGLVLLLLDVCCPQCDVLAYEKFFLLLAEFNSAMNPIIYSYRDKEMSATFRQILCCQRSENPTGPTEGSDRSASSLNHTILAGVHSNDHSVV

Structure (SMILES): CC[C@@H](C)OC(=O)Nc1c(-c2ccc(-c3ccc(C4(C(=O)O)CC4)cc3)cc2)cnn1C [Example 14, (R)-1-{4′-[5-(sec-Butoxycarbonylamino)-1-methyl-1H-pyrazol-4-yl]-biphenyl-4-yl}-cyclopropanecarboxylic acid]
- IC50 [1]: 0.038 µM
- IC50 (LPA3R): > 30 µM

Structure (SMILES): C[C@@H](OC(=O)Nc1c(-c2ccc(-c3ccc(C4(C(=O)O)CC4)cc3)cc2)cnn1C)c1ccccc1F [Example 16, (R)-1-{4′-[5-((1-(2-Fluorophenyl)ethoxy)carbonylamino)-1-methyl-1H-pyrazol-4-yl]-biphenyl-4-yl}-cyclopropanecarboxylic acid]
- IC50 [1]: 0.024 µM
- IC50 (LPA3R): 5.8 µM

Structure (SMILES): COc1ccc(-c2cnn(C)c2NC(=O)O[C@H](C)c2ccccc2)cc1 [Example 8, [4-(4-Methoxy-phenyl)-2-methyl-2H-pyrazol-3-yl]-carbamic acid (R)-1-phenyl-ethyl ester]
- IC50 [1]: > 30 µM
- IC50 (LPA3R): > 30 µM

Structure (SMILES): Cn1ncc(-c2ccc(-c3ccc(C4(C(=O)O)CC4)cc3)cc2)c1NC(=O)NCc1ccccc1 [Example 24, 1-{4′-[5-(3-Benzyl-ureido)-1-methyl-1H-pyrazol-4-yl]-biphenyl-4-yl}-cyclopropanecarboxylic acid]
- inhibition at 10 µM ([1]; @ 10 μM): 82.8%
- IC50 [1]: 0.58 µM
- IC50 (LPA3R): > 30 µM

Structure (SMILES): C[C@@H](OC(=O)Nc1c(-c2ccc(-c3ccc(CC(=O)O)cc3)cc2)cnn1C)c1ccccc1 [Example 2, {4′-[1-Methyl-5-((R)-1-phenyl-ethoxycarbonylamino)-1H-pyrazol-4-yl]-biphenyl-4-yl}-acetic acid]
- IC50 [1]: 0.035 µM
- IC50 (LPA3R): > 30 µM

Structure (SMILES): CC(OC(=O)Nc1c(-c2ccc(-c3ccc(C4(C(=O)O)CC4)cc3)cc2)cnn1C)c1ccccc1Cl (stereo not drawn) [Example 6, 1-(4′-{5-[1-(2-Chloro-phenyl)-ethoxycarbonylamino]-1-methyl-1H-pyrazol-4-yl}-biphenyl-4-yl)-cyclopropanecarboxylic acid]
- IC50 [1]: 0.112 µM
- IC50 (LPA3R): 2.47 µM

Structure (SMILES): CC(C)[C@@H](C)OC(=O)Nc1c(-c2ccc(-c3ccc(C4(C(=O)O)CC4)cc3)cc2)cnn1C [Example 15, (R)-1-{4′-[5-(1,2-Dimethyl-propoxycarbonylamino)-1-methyl-1H-pyrazol-4-yl]-biphenyl-4-yl}-cyclopropanecarboxylic acid]
- IC50 [1]: 0.107 µM
- IC50 (LPA3R): > 30 µM

Structure (SMILES): C[C@@H](CC(=O)Nc1c(-c2ccc(-c3ccc(C4(C(=O)O)CC4)cc3)cc2)cnn1C)c1ccccc1 [Example 25, 1-{4′-[1-Methyl-5-((S)-3-phenyl-butyrylamino)-1H-pyrazol-4-yl]-biphenyl-4-yl}-cyclopropanecarboxylic acid]
- inhibition at 30 µM [1]: 85.5%
- IC50 [1]: 0.88 µM
- IC50 (LPA3R): > 30 µM

Structure (SMILES): CCOC(=O)C1(c2ccc(-c3ccc(-c4cnn(C)c4NC(=O)O[C@H](C)c4ccccc4)cc3)cc2)CC1 [Example 4, 1-{4′-[1-Methyl-5-((R)-1-phenyl-ethoxycarbonylamino)-1H-pyrazol-4-yl]-biphenyl-4-yl}-cyclopropanecarboxylic acid ethyl ester]
- inhibition at 30 µM [1]: 65.9%
- IC50 [1]: 1.59 µM
- IC50 (LPA3R): > 30 µM

Structure (SMILES): C[C@@H](OC(=O)Nc1c(-c2ccc(-c3ccccc3)cc2)cnn1C)c1ccccc1 [Example 7, (4-Biphenyl-4-yl-2-methyl-2H-pyrazol-3-yl)-carbamic acid (R)-1-phenyl-ethyl ester]
- IC50 [1]: > 30 µM
- IC50 (LPA3R): > 30 µM

Structure (SMILES): Cn1ncc(-c2ccc(-c3ccc(C4(C(=O)O)CC4)cc3)cc2)c1NC(=O)OC1COC1 [Example 20, 1-{4′-[1-Methyl-5-((oxetan-3-yloxy)carbonylamino)-1H-pyrazol-4-yl]-biphenyl-4-yl}-cyclopropanecarboxylic acid]
- IC50 [1]: > 30 µM
- IC50 (LPA3R): > 30 µM

Structure (SMILES): C[C@@H](OC(=O)Nc1c(-c2ccccc2F)cnn1C)c1cccc(C(F)(F)F)c1 [Example 23, [4-(2-Fluoro-phenyl)-2-methyl-2H-pyrazol-3-yl]-carbamic acid (R)-1-(3-trifluoromethyl-phenyl)-ethyl ester]
- IC50 [1]: > 30 µM
- IC50 (LPA3R): > 30 µM

Structure (SMILES): C[C@@H](OC(=O)Nc1c(-c2ccccc2F)cnn1C)c1ccccc1Cl [Example 21, [4-(2-Fluoro-phenyl)-2-methyl-2H-pyrazol-3-yl]-carbamic acid (R)-1-(2-chloro-phenyl)-ethyl ester]
- inhibition at 30 µM [1]: 97.2%
- IC50 [1]: 0.644 µM
- IC50 (LPA3R): > 30 µM

Structure (SMILES): CC(OC(=O)Nc1c(-c2ccccc2)cnn1C)c1ccccc1Cl (stereo not drawn) [Example 3, (2-Methyl-4-phenyl-2H-pyrazol-3-yl)-carbamic acid 1-(2-chloro-phenyl)-ethyl ester]
- IC50 [1]: 3.59 µM

Structure (SMILES): C[C@@H](OC(=O)Nc1c(-c2ccccc2)cnn1C)c1ccccc1 [Example 1, 2-Methyl-4-phenyl-2H-pyrazol-3-yl-carbamic acid (R)-1-phenyl-ethyl ester]
- inhibition at 30 µM [1]: 64.8%
- IC50 [1]: 17.5 µM
- IC50 (LPA3R): > 30 µM

Structure (SMILES): C[C@@H](OC(=O)Nc1c(-c2ccc(-c3ccc(C4(C(=O)O)CC4)cc3)cc2)cnn1C)c1cccc(C(F)(F)F)c1 [Example 17, (R)-1-{4′-[1-Methyl-5-((1-(3-(trifluoromethyl)phenyl)ethoxy)carbonylamino)-1H-pyrazol-4-yl]-biphenyl-4-yl}-cyclopropanecarboxylic acid]
- IC50 [1]: 0.042 µM
- IC50 (LPA3R): 0.478 µM

Structure (SMILES): CC(OC(=O)Nc1c(-c2ccc(-c3ccc(C4(C(=O)O)CC4)cc3)cc2)cnn1C)c1ccc(F)cc1 (stereo not drawn) [Example 18, 1-{4′-[5-((1-(4-fluorophenyl)ethoxy)carbonylamino)-1-methyl-1H-pyrazol-4-yl]-biphenyl-4-yl}-cyclopropanecarboxylic acid]
- IC50 [1]: 0.057 µM
- IC50 (LPA3R): 8.26 µM

Structure (SMILES): Cn1ncc(-c2ccc(-c3ccc(C4(C(=O)O)CC4)cc3)cc2)c1NC(=O)OC1CCC1 [Example 19, 1-{4′-[5-(cyclobutoxycarbonylamino)-1-methyl-1H-pyrazol-4-yl]-biphenyl-4-yl}-cyclopropanecarboxylic acid]
- IC50 [1]: 0.176 µM
- IC50 (LPA3R): > 30 µM

Structure (SMILES): C[C@@H](OC(=O)Nc1c(-c2ccc(C3(C(=O)O)CC3)cc2)cnn1C)c1ccccc1 [Example 9, 1-{4-[1-Methyl-5-((R)-1-phenyl-ethoxycarbonylamino)-1H-pyrazol-4-yl]-phenyl}-cyclopropanecarboxylic acid]
- IC50 [1]: > 30 µM
- IC50 (LPA3R): > 30 µM

Structure (SMILES): C[C@@H](OC(=O)Nc1c(-c2ccc(-c3ccc(C4(C(=O)O)CC4)cc3)cc2)cnn1C)c1ccccc1 [Example 5, 1-{4′-[1-Methyl-5-((R)-1-phenyl-ethoxycarbonylamino)-1H-pyrazol-4-yl]-biphenyl-4-yl}-cyclopropanecarboxylic acid]
- IC50 [1]: 0.02 µM
- IC50 (LPA3R): 8.35 µM

Structure (SMILES): CC(OC(=O)Nc1c(-c2ccccc2F)cnn1C)c1ccccc1Cl (racemic) [Example 13, [4-(2-Fluoro-phenyl)-2-methyl-2H-pyrazol-3-yl]-carbamic acid 1-(2-chloro-phenyl)-ethyl ester]
- IC50 [1]: 1.4 µM
- IC50 (LPA3R): > 30 µM

Structure (SMILES): C[C@H](OC(=O)Nc1c(-c2ccccc2F)cnn1C)c1ccccc1Cl [Example 22, [4-(2-Fluoro-phenyl)-2-methyl-2H-pyrazol-3-yl]-carbamic acid (S)-1-(2-chloro-phenyl)-ethyl ester]
- IC50 [1]: > 30 µM
- IC50 (LPA3R): > 30 µM

Structure (SMILES): C[C@@H](OC(=O)Nc1c(-c2ccc(CC(=O)O)cc2)cnn1C)c1ccccc1 [Example 10, {4-[1-Methyl-5-((R)-1-phenyl-ethoxycarbonylamino)-1H-pyrazol-4-yl]-phenyl}-acetic acid]
- IC50 [1]: > 30 µM
- IC50 (LPA3R): > 30 µM

Structure (SMILES): CC(OC(=O)Nc1c(-c2ccc(F)cc2)cnn1C)c1ccccc1Cl (stereo not drawn) [Example 11, [4-(4-Fluoro-phenyl)-2-methyl-2H-pyrazol-3-yl]-carbamic acid 1-(2-chloro-phenyl)-ethyl ester]
- IC50 [1]: 3.93 µM
